# Measured values taken from ChEMBL document CHEMBL1671621, “Efficient clearance of Aspergillus fumigatus in murine lungs by an ultrashort antimicrobial lipopeptide, palmitoyl-lys-ala-DAla-lys” (Antimicrob Agents Chemother, 2008).
# The source made the active and inactive calls. The rule behind the calls is not given here. Where a SMILES comes first, the peptide text is derived from it. [ ]: non-standard residue; d: D form. The star is where a group is joined. Palmitoyl = CCCCCCCCCCCCCCCC(=O)*; Lauroyl = CCCCCCCCCCCC(=O)*
# Experiments:
# Aspergillus fumigatus [1] = test: Antifungal activity against Aspergillus fumigatus CBS 144.89 by CLSI […] method; format: functional
# [2] = Toxicity in human RBC assessed as hemolysis at 20 uM; format: cell-based, Erythrocyte; details: red blood cells (RBC), read-out: Activity
# [3] = Toxicity in human RBC assessed as hemolysis at 50 uM; format: cell-based, Erythrocyte; details: red blood cells (RBC), read-out: Activity
# Aspergillus fumigatus [4] = test: Antifungal activity against DsRed-labeled Aspergillus fumigatus CBS 144.89 infected in immunocompromized C57BL/6 mouse assessed fungal hyphae degradation in lung at 4.5 mg/kg qd administered intratracheally for 4 days relative to untreated control; format: functional, organism-based; set-up: dose 4.5 mg/kg
# Aspergillus fumigatus [5] = test: (§1) Antifungal activity against DsRed-labeled Aspergillus fumigatus CBS 144.89 infected in transgenic C57BL/6 Cx3cr1 gfp/+ mouse assessed as macrophages phygocytosed-fungal conidia at 4.5 mg/kg qd administered intratracheally for 4 days relative to untreated control; format: functional, organism-based; set-up: dose 4.5 mg/kg
# Aspergillus fumigatus [6] = test: Antifungal activity against Aspergillus fumigatus CBS 144.89 infected in immunosuppressed wild-type C57BL/6 mouse assessed as increase in survival rate at 4.5 mg/kg administered intratracheally as single dose one day postinfection measured after 14 days relative to untreated control; format: functional, organism-based; set-up: dose 4.5 mg/kg
# Aspergillus fumigatus [7] = test: Antifungal activity against Aspergillus fumigatus CBS 144.89 infected in immunosuppressed wild-type C57BL/6 mouse assessed as increase in survival rate at 4.5 mg/kg administered intratracheally for 4 days from the day of infection measured after 14 days relative to untreated control; format: functional, organism-based; set-up: dose 4.5 mg/kg
# Aspergillus fumigatus [8] = test: Antifungal activity against Aspergillus fumigatus CBS 144.89 infected in immunosuppressed wild-type C57BL/6 mouse assessed as clearance of fungal forms in lung at 4.5 mg/kg administered intratracheally on days 1, 4, 7 and 11 one day post infection measured after 21 days relative to untreated control; format: functional, organism-based; set-up: dose 4.5 mg/kg
# Mus musculus [9] = test: Toxicity in immunosuppressed C57BL/6 mouse assessed as mild multifocal interstitial plasmacytic infiltration at 4.5 mg/kg administered intratracheally on days 1, 4, 7 and 11 one day post infection; format: organism-based; set-up: dose 4.5 mg/kg, route endotracheal; details: in vivo, inhaled_or_intranasal
# Mus musculus [10] = test: Toxicity in immunosuppressed C57BL/6 mouse assessed as mild multifocal interstitial plasmacytic infiltration at 1 mg/kg administered intratracheally on days 1, 4, 7 and 11 one day post infection; format: organism-based; set-up: dose 1 mg/kg, route endotracheal; details: in vivo, inhaled_or_intranasal
# Aspergillus fumigatus [11] = test: Antifungal activity against Aspergillus fumigatus CBS 144.89 infected in immunosuppressed wild-type C57BL/6 mouse assessed as recovery from infection at 4.5 mg/kg administered intratracheally on days 1, 4, 7 and 11 one day post infection measured after 21 days relative to untreated control; format: functional; details: route endotracheal
# Aspergillus fumigatus [12] = test: Antifungal activity against Aspergillus fumigatus CBS 144.89 infected in immunosuppressed wild-type C57BL/6 mouse assessed as increase in survival rate at 4.5 mg/kg administered intratracheally on days 1, 4, 7 and 11 one day post infection measured after 21 days relative to untreated control; format: functional, organism-based; set-up: dose 4.5 mg/kg
# Aspergillus fumigatus [13] = test: as §1, with “gfp/+mouse” for “gfp/+ mouse”, “decrease in residual fungal spore colocalized with macrophage and dendritic cell” for “macrophages phygocytosed-fungal conidia”; format: functional, organism-based; set-up: dose 4.5 mg/kg
# Aspergillus fumigatus [14] = test: Antifungal activity against DsRed-labeled Aspergillus fumigatus CBS 144.89 infected in immunocompromized mouse assessed as macrophages phygocytosed-fungal conidia at 4.5 mg/kg qd administered intratracheally for 4 days relative to untreated control; format: functional, organism-based; set-up: dose 4.5 mg/kg
# Aspergillus fumigatus [15] = test: Antifungal activity against DsRed-labeled Aspergillus fumigatus CBS 144.89 infected in immunocompromized mouse assessed as decrease in residual fungal spore colocalized with macrophage and dendritic cell at 4.5 mg/kg qd administered intratracheally for 4 days relative to untreated control; format: functional, organism-based; set-up: dose 4.5 mg/kg
# Aspergillus fumigatus [16] = test: Antifungal activity against DsRed-labeled Aspergillus fumigatus CBS 144.89 infected in immunocompromized C57BL/6 mouse assessed fungal hyphae degradation in lung at 1 mg/kg qd administered intratracheally for 4 days relative to untreated control; format: functional, organism-based; set-up: dose 1 mg/kg
# Mus musculus [17] = test: Toxicity in immunosuppressed C57BL/6 mouse assessed as macrophage infiltration in the airways at 1 to 4.5 mg/kg administered intratracheally on days 1, 4, 7 and 11 one day post infection; format: organism-based; set-up: dose 1-4.5 mg/kg, route endotracheal; details: in vivo, inhaled_or_intranasal
# Mus musculus [18] = test: Toxicity in immunosuppressed C57BL/6 mouse assessed as vasculitis at 1 to 4.5 mg/kg administered intratracheally on days 1, 4, 7 and 11 one day post infection; format: organism-based; set-up: dose 1-4.5 mg/kg, route endotracheal; details: in vivo, inhaled_or_intranasal
# Mus musculus [19] = test: Toxicity in immunosuppressed C57BL/6 mouse assessed as edema at 1 to 4.5 mg/kg administered intratracheally on days 1, 4, 7 and 11 one day post infection; format: organism-based; set-up: dose 1-4.5 mg/kg, route endotracheal; details: in vivo, inhaled_or_intranasal
# Mus musculus [20] = test: Toxicity to immunosuppressed C57BL/6 mouse assessed as airway infiltration of neutrophils at 1 to 4.5 mg/kg administered intratracheally on days 1, 4, 7 and 11 one day post infection; format: organism-based; set-up: dose 1-4.5 mg/kg, route endotracheal; details: in vivo, inhaled_or_intranasal
# Mus musculus [21] = test: Toxicity in immunosuppressed C57BL/6 mouse assessed as blood vessel formation at 1 to 4.5 mg/kg administered intratracheally on days 1, 4, 7 and 11 one day post infection; format: organism-based; set-up: dose 1-4.5 mg/kg, route endotracheal; details: in vivo, inhaled_or_intranasal
# Mus musculus [22] = test: Toxicity in immunosuppressed C57BL/6 mouse assessed as hemorrhages at 1 to 4.5 mg/kg administered intratracheally on days 1, 4, 7 and 11 one day post infection; format: organism-based; set-up: dose 1-4.5 mg/kg, route endotracheal; details: in vivo, inhaled_or_intranasal
# Aspergillus fumigatus [23] = test: Antifungal activity against Aspergillus fumigatus CBS 144.89 infected in immunosuppressed wild-type C57BL/6 mouse assessed as increase in survival rate at 1 mg/kg administered intratracheally as single dose one day postinfection measured after 14 days relative to untreated control; format: functional, organism-based; set-up: dose 1 mg/kg
# Aspergillus fumigatus [24] = test: Antifungal activity against Aspergillus fumigatus CBS 144.89 infected in immunosuppressed wild-type C57BL/6 mouse assessed as increase in survival rate at 1 mg/kg administered intratracheally for 4 days from the day of infection measured after 14 days relative to untreated control; format: functional, organism-based; set-up: dose 1 mg/kg
smiles,measurement,setting,value
CCCCCCCCCCCCCCCC(=O)N[C@@H](CCCCN)C(=O)N[C@@H](CC(C)C)C(=O)N[C@H](CC(C)C)C(=O)N[C@@H](CCCCN)C(=O)O,MIC,Aspergillus fumigatus [1],2 µg/mL
same,hemolysis at 20 µM,[2],9%
same,hemolysis at 50 µM,[3],45%
CCCCCCCCCCCCCC(=O)N[C@@H](CCCCN)C(=O)N[C@@H](CC(C)C)C(=O)N[C@H](CC(C)C)C(=O)N[C@@H](CCCCN)C(=O)O,MIC,Aspergillus fumigatus [1],9 µg/mL
same,hemolysis at 20 µM,[2],13%
same,hemolysis at 50 µM,[3],50%
CCCCCCCCCCCC(=O)N[C@@H](CC(=O)O)C(=O)N[C@@H](CC(C)C)C(=O)N[C@@H](CCCCN)C(=O)N[C@@H](CCCCN)C(=O)N[C@@H](CC(C)C)C(=O)N[C@@H](CC(C)C)C(=O)N[C@@H](CCCCN)C(=O)N[C@@H](CCCCN)C(=O)N[C@@H](CC(C)C)C(=O)N[C@@H](CC(C)C)C(=O)N[C@@H](CCCCN)C(=O)N[C@@H](CCCCN)C(=O)N[C@@H](CC(C)C)C(=O)O (Lauroyl-DLKKLLKKLLKKL-OH),MIC,Aspergillus fumigatus [1],20.8 µg/mL
same,hemolysis at 20 µM,[2],0%
same,hemolysis at 50 µM,[3],0%
same,Activity,Aspergillus fumigatus [4],Active
CCCCCCCCCCCC(=O)N[C@@H](CCCCN)C(=O)N[C@@H](CC(C)C)C(=O)N[C@H](CC(C)C)C(=O)N[C@@H](CCCCN)C(=O)O (Lauroyl-KL[dL]K-OH),MIC,Aspergillus fumigatus [1],34 µg/mL
same,hemolysis at 20 µM,[2],0%
same,hemolysis at 50 µM,[3],0%
CCCCCCCCCCCCCCCC(=O)N[C@@H](CCCCN)C(=O)N[C@@H](C)C(=O)N[C@H](C)C(=O)N[C@@H](CCCCN)C(=O)O (Palmitoyl-KA[dA]K-OH),MIC,Aspergillus fumigatus [1],8 µg/mL
same,hemolysis at 20 µM,[2],0%
same,hemolysis at 50 µM,[3],3%
same,Activity,Aspergillus fumigatus [4],Active
same,Activity,Aspergillus fumigatus [5],Active
same,Activity,Aspergillus fumigatus [6],Active
same,Activity,Aspergillus fumigatus [7],Active
same,Activity,Aspergillus fumigatus [8],Active
same,Activity,Mus musculus [9],Toxic
same,Activity,Mus musculus [10],Toxic
same,Activity,Aspergillus fumigatus [11],25%
same,Activity,Aspergillus fumigatus [12],Active
same,Activity,Aspergillus fumigatus [13],Active
same,Activity,Aspergillus fumigatus [14],Active
same,Activity,Aspergillus fumigatus [15],Active
CCCCCCCCCCCCCCCC(=O)N[C@@H](CCCCN)C(=O)N[C@@H](CCCCN)C(=O)N[C@H](CCCCN)C(=O)N[C@@H](CCCCN)C(=O)O (Palmitoyl-KK[dK]K-OH),MIC,Aspergillus fumigatus [1],38.4 µg/mL
same,hemolysis at 20 µM,[2],0%
same,hemolysis at 50 µM,[3],6%
C[C@@H]1[C@H](O)[C@@H](C)/C=C/C=C/C=C/C=C/C=C/C=C/C=C/[C@H](O[C@@H]2O[C@H](C)[C@@H](O)[C@H](N)[C@@H]2O)C[C@@H]2O[C@](O)(C[C@@H](O)C[C@@H](O)[C@H](O)CC[C@@H](O)C[C@@H](O)CC(=O)O[C@H]1C)C[C@H](O)[C@H]2C(=O)O [AMPHOTERICIN B],MIC,Aspergillus fumigatus [1],11.5 µg/mL
same,Activity,Aspergillus fumigatus [16],inactive
same,Activity,Mus musculus [17],Toxic
same,Activity,Mus musculus [18],Toxic
same,Activity,Mus musculus [19],Toxic
same,Activity,Mus musculus [20],Toxic
same,Activity,Mus musculus [21],Toxic
same,Activity,Mus musculus [22],Toxic
same,Activity,Aspergillus fumigatus [23],inactive
same,Activity,Aspergillus fumigatus [24],inactive
